Tests used:
[1] = system: human T lymphocytes (PBMC); assay: human mixed lymphocyte reaction (MLR); format: cell-based; settings: 300 nM or 30 nM
estrogen receptor-β = estrogen receptor-β (Homo sapiens, UniProt Q92731); assay: interaction with sex hormone receptor; format: binding
[2] = system: glucose intolerance in DIO mice; assay: diet induced obesity (DIO) mouse hyperglycemia treatment; format: in vivo; settings: 20, 40 or 80 mg/kg twice a day up to 28 days
Text: Diet induced obesity (DIO) mouse hyperglycemia treatment. The effect of a drug to enhance peripheral sensitivity to insulin can be studied in a mouse model in which a state of insulin resistance is attained by feeding the animals a fat-enriched diet (60% of total caloric intake) for at least 6 weeks. This model has been described, e.g., J. N. Thupari et al., Proc. Natl. Acad. Sci. USA, 99(14):9498-9502, 2002, H. Xu et al., J. Clin. Invest., 112:1821-1830, 2003, H. Takahashi et al., J. Biol. Chem., 278(47):46654-46660, 2003.
For these studies, animals of approximately […] of age were divided into groups of 10 animals each and then treated with a vehicle control (no drug) or 17α-ethynylandrost-5-ene-3β,7β,17β-triol by oral gavage. The 17α-ethynylandrost-5-ene-3β,7β,17β-triol was administered at 20 mg/kg, 40 mg/kg or 80 mg/kg twice a day for up to 28 days. At day 14 and day 28 during the dosing period an OGTT was performed.

[3] = system: insulin sensitivity in db/db diabetic mice; assay: hyperinsulinemic-euglycemic clamp; format: in vivo; settings: oral gavage 14 days; insulin 10 mU/kg/min
Method: Glucose lowering in 8 week old db/db diabetic mice. The hyperinsulinemic-euglycemic clamp protocol was conducted to measure insulin sensitivity in vivo. In this procedure, insulin was administered to raise the insulin concentration while glucose was infused to maintain euglycemia or a fixed, normal blood glucose level (about 180 mg/dL). […] The objective of this protocol was to investigate characterize the capacity of 17α-ethynylandrost-5-ene-3β,7β,17β-triol and androst-5-ene-3β,7β,16α,17β-tetrol to ameliorate systemic insulin resistance and improve whole body glucose disposal in the hyperinsulinemic-euglycemic clamp model. The degree of skeletal muscle and hepatic insulin sensitivity and tissue specific glucose uptake were also assessed. The animals were dosed daily by oral gavage for 14 days. On Day 10 of treatment catheters were implanted in the carotid artery and jugular vein. On the day of the clamp (day 14) the compound was administered at 7:30 am.
Body weight and glucose concentration were assessed on day 0, 7 and day 14 of treatment. On day 14 a euglycemic hyperinsulinemic clamp was performed. Food was removed at 7:30 am at 10:30 a primed continuous infusion of [3-^3H]-glucose (0.05 μCi/min). A baseline blood sample was taken at 12:50 (−10 min) and at 1:00 (0 min) a euglycemic hyperinsulinemic clamp was initiated by administering 10 mU /kg/min of insulin. Glucose was infused at a variable rate to clamp the glucose concentration at ˜180 mg/dl. A bolus of [^14C]-2deoxyglucose was given at the end of the study to assess tissue specific glucose uptake. Plasma ^14C 2-deoxyglucose was assessed at 122, 125, 130, 135, 145 min. […]
Analysis was conducted as follows. Plasma samples were deproteinized with Ba(OH)2 (0.3 N) and ZnSO4 (0.3 N), dried and radioactivity was assessed on scintillation counter (Packard TRICARB 2900 TR, Meriden, Conn.). […] One supernatant was directly counted to determine radioactivity from both [14C] […] A second aliquot was treated with Ba(OH)2 and ZnSO4 to remove ^14C DGP and any tracer incorporated into glycogen and then counted to determine radioactivity from free [^14C]DG(2). [^14C]DGP was calculated as the difference between the two aliquots. […] Rg, an index of tissue specific glucose uptake was calculated as previously described (E.W. Kraegen et al., Am. J. Physiol., 248:E353-E362, 1985). Whole body glucose turnover was calculated as the ratio of the ^3H glucose infusion rate (dpm/kg/min) and arterial plasma glucose specific activity (dpm/mg). Endogenous glucose production was calculated as the difference between the whole body glucose turnover and the exogenous glucose infusion rate (R. N. Bergman et al., Endocr. Rev., 6:45-86, 1985).

Sequence of estrogen receptor-β (Q92731 whole entry, species assumed): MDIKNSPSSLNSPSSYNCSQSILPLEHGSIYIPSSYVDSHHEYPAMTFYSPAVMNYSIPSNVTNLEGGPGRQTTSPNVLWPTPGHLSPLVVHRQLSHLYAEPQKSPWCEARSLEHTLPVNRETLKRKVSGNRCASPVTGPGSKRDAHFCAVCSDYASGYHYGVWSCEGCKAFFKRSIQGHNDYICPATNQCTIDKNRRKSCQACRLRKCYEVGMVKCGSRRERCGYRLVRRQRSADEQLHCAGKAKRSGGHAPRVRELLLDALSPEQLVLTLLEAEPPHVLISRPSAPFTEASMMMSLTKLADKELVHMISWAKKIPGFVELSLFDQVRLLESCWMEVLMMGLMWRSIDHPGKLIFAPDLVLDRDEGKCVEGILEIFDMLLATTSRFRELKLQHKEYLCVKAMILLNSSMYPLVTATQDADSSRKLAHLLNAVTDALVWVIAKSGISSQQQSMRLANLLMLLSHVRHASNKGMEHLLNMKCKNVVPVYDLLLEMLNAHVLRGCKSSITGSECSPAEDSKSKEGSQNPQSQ

SMILES: C#C[C@]1(O)CC[C@H]2[C@@H]3[C@@H](O)C=C4C[C@@H](O)CC[C@]4(C)[C@H]3CC[C@@]21C [17α-ethynylandrost-5-ene-3β,7β,17β-triol]
- immune suppression (inhibition of the MLR) [1]: not appreciably immune suppressive
- interaction with estrogen receptor-β (estrogen receptor-β): do not interact
- glucose intolerance (OGTT glycemic excursion) vs vehicle [2]: notably reduced glucose intolerance
- glucose infusion rate compared to vehicle control [3]: increased the glucose infusion rate

Reference: US20080221074A1, “Drug Screen and Treatment Method” (priority 2006, published 2008)
